Here are results for two compounds from ChEMBL document CHEMBL5365456, “Isolation and biological activity of natural chalcones based on antibacterial mechanism classification” (Bioorg Med Chem, 2023).

Values after ≈ are worked out from the molar mass of the structure shown.

Holding throughout (format): functional
The test system of experiment [1] is Mycobacterium tuberculosis variant bovis. The experiment can be described thus: Antibacterial activity against Mycobacterium bovis BCG assessed bacterial growth inhibition by Alamar Blue cell viability assay.
For experiment [2] the test system is unchanged. The experiment can be described thus: Antibacterial activity against Mycobacterium bovis BCG transfected with pVV16 vector assessed bacterial growth inhibition by Alamar Blue cell viability assay. A general note: The colour change of resazurin is a common sign of viable cells or microbes.
For experiment [3] the test system is unchanged. The experiment is described as follows: Antibacterial activity against Mycobacterium bovis BCG transfected with pVV16 vector expressing Rv0636 assessed bacterial growth inhibition by Alamar Blue cell viability assay.

One may read the MIC99 as the lowest concentration that inhibits either 99% of growth or 99% of the strains tested, depending on the study. Read a high MIC99 as lower susceptibility. Turning to `O=C(/C=C/c1ccc(O)c(O)c1)c1ccc(O)cc1O` [BUTEIN], the MIC99 was 47 mg/L (≈ 173 µM) in experiment [1], 43 mg/L (≈ 158 µM) in experiment [2] and 59 mg/L (≈ 217 µM) in experiment [3].

In the case of `O=C(/C=C/c1ccc(O)cc1)c1ccc(O)cc1O` [ISOLIQUIRITIGENIN], the MIC99 is 50 mg/L (≈ 195 µM) in experiment [1], 50 mg/L (≈ 195 µM) in experiment [2] and 64 mg/L (≈ 250 µM) in experiment [3].
